Measured values taken from ChEMBL document CHEMBL1148625, “3-(1,1-dioxo-2H-(1,2,4)-benzothiadiazin-3-yl)-4-hydroxy-2(1H)-quinolinones, potent inhibitors of hepatitis C virus RNA-dependent RNA polymerase” (J Med Chem, 2006).

What follows are molecules tested against RNA-directed RNA polymerase (Hepacivirus hominis, UniProt O39930) (assay: Inhibitory activity against HCV delta 21 NS5B RNA polymerase by SPA assay).
Parameters: species or system Hepatitis C virus subtype 1b

Sequence of RNA-directed RNA polymerase (O39930 whole entry): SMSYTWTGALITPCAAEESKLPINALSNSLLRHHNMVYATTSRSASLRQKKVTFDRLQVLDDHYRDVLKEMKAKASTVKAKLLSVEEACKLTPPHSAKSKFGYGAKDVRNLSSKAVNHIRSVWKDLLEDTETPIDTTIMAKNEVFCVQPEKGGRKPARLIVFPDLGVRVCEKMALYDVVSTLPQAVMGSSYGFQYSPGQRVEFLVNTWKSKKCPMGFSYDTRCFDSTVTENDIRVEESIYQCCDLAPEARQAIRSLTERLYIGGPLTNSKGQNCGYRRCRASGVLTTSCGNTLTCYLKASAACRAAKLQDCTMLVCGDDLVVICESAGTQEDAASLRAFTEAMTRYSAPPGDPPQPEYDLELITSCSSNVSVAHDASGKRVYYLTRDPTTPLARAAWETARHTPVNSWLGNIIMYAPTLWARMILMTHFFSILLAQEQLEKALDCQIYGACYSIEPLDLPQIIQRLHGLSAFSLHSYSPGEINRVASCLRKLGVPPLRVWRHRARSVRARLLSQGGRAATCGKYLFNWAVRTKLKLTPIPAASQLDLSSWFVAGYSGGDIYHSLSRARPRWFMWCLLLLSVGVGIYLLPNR

| SMILES | IC50 [nM] |
| --- | --- |
| CC(C)CCn1c(=O)c(C2=NS(=O)(=O)c3ccccc3N2)c(O)c2c([N+](=O)[O-])cccc21 | 338 |
| C=CCCn1c(=O)c(C2=NS(=O)(=O)c3ccccc3N2)c(O)c2ccccc21 | 90 |
| CC(C)CCn1c(=O)c(C2=NS(=O)(=O)c3ccccc3N2)c(O)c2cc(C(=O)O)ccc21 | 1040 |
| O=c1[nH]c(-c2c(O)c3cc(F)ccc3n(CCC3CC3)c2=O)nc2ccccc12 | > 10000 |
| O=c1c(C2=NS(=O)(=O)c3ccccc3N2)c(O)c2ccccc2n1Cc1cccnc1 | 316 |
| CCOC(=O)CNc1ccc2c(c1)c(O)c(C1=Nc3ccccc3S(=O)(=O)N1)c(=O)n2CCC(C)C | 115 |
| O=c1c(C2=NS(=O)(=O)c3ccccc3N2)c(O)c2ccccc2n1CCCc1ccccc1 | > 10000 |
| CC(C)CCn1c(=O)c(C2=Nc3ccccc3S(=O)(=O)N2)c(O)c2cc(OCC(N)=O)ccc21 | 24 |
| CN(C)CCn1c(=O)c(C2=Nc3ccccc3S(=O)(=O)N2)c(O)c2ccccc21 | > 10000 |
| O=S1(=O)N=C(c2c(O)nc3ccccc3c2O)Nc2ccccc21 | > 10000 |
| CCOC(=O)CCCn1c(=O)c(C2=NS(=O)(=O)c3ccccc3N2)c(O)c2ccccc21 | > 10000 |
| O=c1c(C2=NS(=O)(=O)c3ccccc3N2)c(O)c2ccccc2n1CCc1ccsc1 | > 10000 |
| O=c1c(C2=NS(=O)(=O)c3ccccc3N2)c(O)c2ccccc2n1CCc1ccccc1 | > 10000 |
| CC(C)CCn1c(=O)c(C2=Nc3ccccc3S(=O)(=O)N2)c(O)c2cc(OCc3ccccc3)ccc21 | 3950 |
| CC(C)CCn1c(=O)c(C2=Nc3ccccc3S(=O)(=O)N2)c(O)c2ccc(Cl)cc21 | > 10000 |
| NCCCCn1c(=O)c(C2=NS(=O)(=O)c3ccccc3N2)c(O)c2ccccc21 | > 10000 |
| CC(C)CCn1c(=O)c(C2=NS(=O)(=O)c3ccccc3N2)c(O)c2cc(I)ccc21 | > 10000 |
| COCCOc1ccc2c(c1)c(O)c(C1=NS(=O)(=O)c3ccccc3N1)c(=O)n2CCC(C)C | 1740 |
| COc1ccc2c(c1)c(O)c(C1=NS(=O)(=O)c3ccccc3N1)c(=O)n2CCC(C)C | 23 |
| CC(C)CCn1c(=O)c(C2=Nc3ccccc3S(=O)(=O)N2)c(O)c2c(-c3ccccc3)cccc21 | 144 |

| SMILES | IC50 [nM] |
| --- | --- |
| CC(C)CCn1c(=O)c(C2=NS(=O)(=O)c3ccccc3N2)c(O)c2ccc(/C=C/C(N)=O)cc21 | > 10000 |
| O=c1c(C2=NS(=O)(=O)c3ccccc3N2)c(O)c2ccccc2n1Cc1ccc(Br)cc1 | 95 |
| CC(C)CCn1c(=O)c(C2=NS(=O)(=O)c3ccccc3N2)c(O)c2c(O)cccc21 | 47 |
| N#CCCCn1c(=O)c(C2=NS(=O)(=O)c3ccccc3N2)c(O)c2ccccc21 | 172 |
| CC(C)CCn1c(=O)c(C2=NS(=O)(=O)c3ccccc3N2)c(N)c2ccccc21 | > 10000 |
| CCOC(=O)c1ccc2c(c1)c(O)c(C1=NS(=O)(=O)c3ccccc3N1)c(=O)n2CCC(C)C | > 10000 |
| CCOC(=O)c1ccc2c(O)c(C3=Nc4ccccc4S(=O)(=O)N3)c(=O)n(CCC(C)C)c2c1 | > 10000 |
| O=c1c(C2=NS(=O)(=O)c3ccccc3N2)c(O)c2ccccc2n1Cc1ccncc1 | 61 |
| O=c1c(C2=NS(=O)(=O)c3ccccc3N2)c(O)c2ccccc2n1Cc1ccccn1 | 2690 |
| CC(CCn1c(=O)c(C2=NS(=O)(=O)c3ccccc3N2)c(O)c2ccccc21)C(F)(F)F (stereo not drawn) | 44 |
| CC(C)(C)c1ccc(Cn2c(=O)c(C3=NS(=O)(=O)c4ccccc4N3)c(O)c3ccccc32)cc1 | > 10000 |
| CC(C)CCn1cc(C2=NS(=O)(=O)c3ccccc3N2)c(=O)c2ccccc21 | > 10000 |
| CC(C)(C)C(=O)Cn1c(=O)c(C2=NS(=O)(=O)c3ccccc3N2)c(O)c2cc(F)ccc21 | 696 |
| O=c1c(C2=NS(=O)(=O)c3ccccc3N2)c(O)c2ccccc2n1CC1CCCC1 | 132 |
| CC(C)CCn1c(=O)c(C2=NS(=O)(=O)c3ccccc3N2C)c(O)c2ccccc21 | > 2430 |
| CC(C)CCn1c(=O)n(C2=Nc3ccccc3S(=O)(=O)N2)c(=O)c2ccccc21 | 9940 |
| O=c1c(C2=Nc3ccccc3S(=O)(=O)N2)c(O)c2ccccc2n1-c1ccccc1 | > 10000 |
| CCOC(=O)n1c(=O)c(C2=NS(=O)(=O)c3ccccc3N2)c(O)c2ccccc21 | 2040 |
| CC(C)CCn1c(=O)c(C2=NS(=O)(=O)c3ccccc3N2)c(O)c2cc(NC(=O)CC(C)C)ccc21 | 6500 |
| CC(C)(C)CCn1c(=O)c(C2=NS(=O)(=O)c3ccccc3N2)c(O)c2ccccc21 | 21 |

| SMILES | IC50 [nM] |
| --- | --- |
| CC(C)CCn1c(=O)c(C2=Nc3ccccc3S(=O)(=O)N2)c(O)c2cc(NCC(=O)O)ccc21 | 21 |
| Cn1c(=O)c(C2=NS(=O)(=O)c3ccccc3N2)c(O)c2ccccc21 | 5590 |
| NC(=O)CCCn1c(=O)c(C2=Nc3ccccc3S(=O)(=O)N2)c(O)c2ccccc21 | > 10000 |
| CC(C)CCn1c(=O)c(C2=Nc3ccccc3S(=O)(=O)N2)c(O)c2cc(NC(=O)C3CCCC3)ccc21 | 973 |
| O=c1c(C2=Nc3ccccc3S(=O)(=O)N2)c(O)c2ccccc2n1CCc1cccs1 | > 10000 |
| CC(C)CCn1c(=O)c(C2=NS(=O)(=O)c3ccccc3N2)c(O)c2cc(NC(=O)c3ccccc3)ccc21 | 4230 |
| CC(C)CCn1c(=O)c(C2=Nc3ccccc3S(=O)(=O)N2)c(O)c2cc(NC(=O)CN(C)C)ccc21 | 5810 |
| CC(C)CCn1c(=O)c(C2=NS(=O)(=O)c3ccccc3N2)c(O)c2c(Cl)cccc21 | 33 |
| CC(C)CCn1c(=O)c(C2=Nc3ccccc3S(=O)(=O)N2)c(O)c2ccc(C(=O)O)cc21 | > 10000 |
| C=CCn1c(=O)c(C2=Nc3ccccc3S(=O)(=O)N2)c(O)c2ccccc21 | > 10000 |
| O=c1c(C2=NS(=O)(=O)c3ccccc3N2)c(O)c2ccccc2n1CC1CCCO1 (stereo not drawn) | 528 |
| CC(=O)Nc1ccc2c(c1)c(O)c(C1=NS(=O)(=O)c3ccccc3N1)c(=O)n2CCC(C)C | > 10000 |
| O=c1c(C2=Nc3ccccc3S(=O)(=O)N2)c(O)c2ccccc2n1Cc1ccccc1[N+](=O)[O-] | > 10000 |
| CC(C)CCn1c(=O)c(C2=NS(=O)(=O)c3ccccc3N2)c(O)c2cc(OCCCC#N)ccc21 | 4330 |
| CC(C)CCn1c(=O)c(C2=Nc3ccccc3S(=O)(=O)N2)c(O)c2ccc([N+](=O)[O-])cc21 | > 10000 |
| CN(C)C(=O)Cn1c(=O)c(C2=Nc3ccccc3S(=O)(=O)N2)c(O)c2cc(F)ccc21 | > 10000 |
| CC(C)CCn1c(=O)c(C2=Nc3ccccc3S(=O)(=O)N2)c(O)c2cccc([N+](=O)[O-])c21 | > 10000 |
| CC(C)CCn1c(=O)c(C2=Nc3ccccc3S(=O)(=O)N2)c(O)c2ccc(Br)cc21 | > 10000 |

Continued, values first:

| IC50 [nM] | SMILES |
| --- | --- |
| 81 | O=c1c(C2=Nc3ccccc3S(=O)(=O)N2)c(O)c2ccccc2n1Cc1cccc([N+](=O)[O-])c1 |
| 179 | C#CCCCn1c(=O)c(C2=Nc3ccccc3S(=O)(=O)N2)c(O)c2ccccc21 |
| 49 | O=c1c(C2=Nc3ccccc3S(=O)(=O)N2)c(O)c2ccccc2n1CC1CCC1 |
| 340 | CC(C)CCn1c(=O)c(C2=Nc3ccccc3S(=O)(=O)N2)c(O)c2c(F)cccc21 |
| 290 | CC(Br)CCn1c(=O)c(C2=Nc3ccccc3S(=O)(=O)N2)c(O)c2ccccc21 (stereo not drawn) |
| 1550 | CCCn1c(=O)c(C2=Nc3ccccc3S(=O)(=O)N2)c(O)c2ccccc21 |
| 118 | C#CCCn1c(=O)c(C2=NS(=O)(=O)c3ccccc3N2)c(O)c2ccccc21 |
| 455 | CC(C)CCn1c(=O)c(C2=Nc3ccccc3S(=O)(=O)N2)c(O)c2cc([N+](=O)[O-])ccc21 |
| 819 | COCCn1c(=O)c(C2=Nc3ccccc3S(=O)(=O)N2)c(O)c2ccccc21 |
| 80 | CCCCCn1c(=O)c(C2=Nc3ccccc3S(=O)(=O)N2)c(O)c2ccccc21 |
| 53 | CSCCn1c(=O)c(C2=NS(=O)(=O)c3ccccc3N2)c(O)c2ccccc21 |
| 36 | O=c1c(C2=Nc3ccccc3S(=O)(=O)N2)c(O)c2ccccc2n1Cc1cccc(Br)c1 |
| 780 | N#Cc1ccccc1Cn1c(=O)c(C2=Nc3ccccc3S(=O)(=O)N2)c(O)c2ccccc21 |
| 105 | CC(C)CCn1c(=O)c(C2=Nc3ccccc3S(=O)(=O)N2)c(O)c2c(Br)cccc21 |
| 206 | Cc1cccc2c1c(O)c(C1=Nc3ccccc3S(=O)(=O)N1)c(=O)n2CCC(C)C |
| 205 | CC(C)CCn1c(=O)c(C2=Nc3ccccc3S(=O)(=O)N2)c(O)c2cc(Br)ccc21 |
| 108 | CC(C)Cn1c(=O)c(C2=Nc3ccccc3S(=O)(=O)N2)c(O)c2ccccc21 |
| 750 | N#CCCCCn1c(=O)c(C2=Nc3ccccc3S(=O)(=O)N2)c(O)c2ccccc21 |

| IC50 [nM] | SMILES |
| --- | --- |
| 41 | CC1CC1Cn1c(=O)c(C2=Nc3ccccc3S(=O)(=O)N2)c(O)c2ccccc21 (stereo not drawn) |
| 367 | O=c1c(C2=Nc3ccccc3S(=O)(=O)N2)c(O)c2ccccc2n1CC1CCCCC1 |
| 289 | CC(C)=CCn1c(=O)c(C2=Nc3ccccc3S(=O)(=O)N2)c(O)c2ccccc21 |
| 82 | COC(C)CCn1c(=O)c(C2=NS(=O)(=O)c3ccccc3N2)c(O)c2ccccc21 (stereo not drawn) |
| 82 | O=c1c(C2=Nc3ccccc3S(=O)(=O)N2)c(O)c2ccccc2n1Cc1ccccc1 |
| 2220 | CCn1c(=O)c(C2=Nc3ccccc3S(=O)(=O)N2)c(O)c2ccccc21 |
| 198 | CC(C)CCn1c(=O)c(C2=Nc3ccccc3S(=O)(=O)N2)c(O)c2cc(O)ccc21 |
| 304 | Cc1nc(Cn2c(=O)c(C3=Nc4ccccc4S(=O)(=O)N3)c(O)c3ccccc32)cs1 |
| 2810 | O=c1c(C2=NS(=O)(=O)c3ccccc3N2)c(O)c2ccccc2n1CCCO |
| 90 | O=c1c(C2=Nc3ccccc3S(=O)(=O)N2)c(O)c2cccc(F)c2n1CCC1CC1 |
| 65 | CCC(C)CCn1c(=O)c(C2=NS(=O)(=O)c3ccccc3N2)c(O)c2ccccc21 (stereo not drawn) |
| 554 | CC(C)CCn1c(=O)c(C2=Nc3ccccc3S(=O)(=O)N2)c(O)c2ccc(F)cc21 |
| 150 | C/C=C/Cn1c(=O)c(C2=Nc3ccccc3S(=O)(=O)N2)c(O)c2ccccc21 |
| 20 | CC(C)CCn1c(=O)c(C2=Nc3ccccc3S(=O)(=O)N2)c(O)c2cc(F)ccc21 |
| 78 | O=c1c(C2=Nc3ccccc3S(=O)(=O)N2)c(O)c2ccccc2n1CC1CC1 |
| 62 | CC(C)CCn1c(=O)c(C2=Nc3ccccc3S(=O)(=O)N2)c(O)c2cc(N)ccc21 |
| 2540 | C[S+]([O-])CCn1c(=O)c(C2=NS(=O)(=O)c3ccccc3N2)c(O)c2ccccc21 (stereo not drawn) |
